Columns and labels:
MCF7 cells [1] = test: MTT proliferation assay, 72 hr (Example 6.2); format: cell-based, human; details: Homo sapiens, MCF7, 72 h, mean ± SD of at least five experiments
Procedure: (§1) The human cancer cell lines; MCF7 (breast), HCT116 (colon) and A549 (lung) (Cancer Research UK, London, UK), were grown in either DMEM (Sigma) or RPMI (Sigma) media supplemented with 10% foetal bovine serum, 2 mM L-glutamine, 1% penicillin/streptomycin.
(§2) To study the effect of each agent on cell growth, cells growing exponentially were added to 96-well plates at a density of 3×10^4/well. Drugs (0.1-100 μM) were then added to the wells, ensuring an equal volume of 200 μl across the plate. Cell number was measured at 72 hr using a standard methylthiazoletetrazolium (MTT)-based assay without modifications as described previously (Gordi et al., 2004, Toxicol. Lett. 147: 99-107). Briefly, MTT (Sigma) was added to each well to give a working concentration of 0.4 mg/ml, and plates returned to the incubator for a further 1 hr. After this time, the medium was aspirated off, 200 μl of DMSO was then added to each well, and plates agitated gently for 5 min before measuring optical density at 540 nm in each well.

A549 cells = test: MTT proliferation assay, 72 hr (Example 6.2); format: cell-based, human; details: Homo sapiens, A549, 72 h, mean ± SD of at least five experiments
Procedure: as §1, §2

HCT116^poly cells = test: MTT proliferation assay, 72 hr (Example 6.2); format: cell-based, human; details: Homo sapiens, HCT116^poly (polyploid extended-passage variant)
Procedure: as §2

MCF7 cells [2] = test: MTT proliferation assay, 72 hr (Example 6.1); format: cell-based, human; details: Homo sapiens, MCF7, 72 h, MCF7 (breast), 72 hours treatment, MTT; mean ± SD of at least 3 experiments
Procedure: (§3) The human cancer cell lines; MCF7 (breast), HCT116 and SW480 (colon) (Cancer Research UK, London, UK), KM and MJT3 (melanoma) (in house), PANC1 and MIAPaCa (pancreas) (European Collection of Cell Cultures, Salisbury, UK) were grown in either DMEM (Sigma) or RPMI (Sigma) media supplemented with 10% foetal bovine serum, 2 mM L-glutamine, 1% penicillin/streptomycin.
as §2, with “ATM and ART” for “each agent”, “μL” for “μl”, “number/proliferation” for “number”, “modifications.” for “modifications as described previously (Gordi et al., 2004, Toxicol. Lett. 147: 99-107).”

SW480 cells = test: MTT proliferation assay, 72 hr (Example 6.1); format: cell-based, human; details: Homo sapiens; SW480 (colon), 72 hours treatment, MTT; mean ± SD of at least 3 experiments
Procedure: as §3
as §2, with “ATM and ART” for “each agent”, “μL” for “μl”, “number/proliferation” for “number”, “modifications.” for “modifications as described previously (Gordi et al., 2004, Toxicol. Lett. 147: 99-107).”

HCT116 cells = test: MTT proliferation assay, 72 hr (Example 6.1); format: cell-based, human; details: Homo sapiens, HCT-116; HCT116 (colon), 72 hours treatment, MTT; mean ± SD of at least 3 experiments
Procedure: as §3
as §2, with “ATM and ART” for “each agent”, “μL” for “μl”, “number/proliferation” for “number”, “modifications.” for “modifications as described previously (Gordi et al., 2004, Toxicol. Lett. 147: 99-107).”

MJT3 cells = test: MTT proliferation assay, 72 hr (Example 6.1); format: cell-based, human; details: Homo sapiens; MJT3 (melanoma), 72 hours treatment, MTT; mean ± SD of at least 3 experiments
Procedure: as §3
as §2, with “ATM and ART” for “each agent”, “μL” for “μl”, “number/proliferation” for “number”, “modifications.” for “modifications as described previously (Gordi et al., 2004, Toxicol. Lett. 147: 99-107).”

KM cells = test: MTT proliferation assay, 72 hr (Example 6.1); format: cell-based; details: Homo sapiens, KM (melanoma), 72 hours treatment, mean ± SD of at least 3 experiments
Procedure: as §3
as §2, with “ATM and ART” for “each agent”, “μL” for “μl”, “number/proliferation” for “number”, “modifications.” for “modifications as described previously (Gordi et al., 2004, Toxicol. Lett. 147: 99-107).”

MiaPaCa3 cells = test: MTT proliferation assay, 72 hr (Example 6.1); format: cell-based; details: Homo sapiens, MiaPaCa3 (pancreas), 72 hours treatment, mean ± SD of at least 3 experiments
Procedure: as §3
as §2, with “ATM and ART” for “each agent”, “μL” for “μl”, “number/proliferation” for “number”, “modifications.” for “modifications as described previously (Gordi et al., 2004, Toxicol. Lett. 147: 99-107).”

PANC1 cells = test: MTT proliferation assay, 72 hr (Example 6.1); format: cell-based, human; details: Homo sapiens, PANC-1; PANC1 (pancreas), 72 hours treatment, MTT; mean ± SD of at least 3 experiments
Procedure: as §3
as §2, with “ATM and ART” for “each agent”, “Drugs (0.1-100 μM) were then added to the wells, ensuring an equal volume of 200 μl across the plate.” left out, “number/proliferation” for “number”, “modifications.” for “modifications as described previously (Gordi et al., 2004, Toxicol. Lett. 147: 99-107).”, “μL” for “μl”

HCT116^norm cells = test: MTT proliferation assay, 72 hr (Example 6.2); format: cell-based, human; details: Homo sapiens, 72 h, MTT, mean ± SD of at least five experiments, read-out: IC50
Procedure: as §1, §2

cyclin B = test: Immunoblotting analysis (Example 6.2); format: cell-based, human
Procedure: (§4) Cells were harvested and total cellular protein was solubilised in lysis buffer (New England Biolabs, Hitchin, UK) and resolved by Tris-glycine electrophoresis using a 4-12% bis-tris gradient-gel. Following transfer of proteins to 0.45 μm nitrocellulose membranes, blocking was performed in 5% (w/v) non-fat milk in TTBS [0.5% (v/v) Tween-20 in TBS (50 mM Tris, 150 mM NaCl, pH 8.0)]. Primary antibody probing was performed with anti-p21, anti-Bax, anti-CDK4, anti-cyclin D1, anti-pRb or anti-cyclin B1. All primary antibodies were obtained from New England Biolabs (Hitchin, UK) and used at a dilution of 1:1,000, unless stated otherwise. Anti-GAPDH was used as a loading control (1:2,000—New England). Following three washing steps in TTBS, horseradish peroxidase-conjugated anti-species IgG was used as the secondary antibody (Amersham Biosciences Ltd., Little Chalfont, UK). Bands were visualised by the ECL-plus detection system (Amersham).

Bax = test: Immunoblotting analysis (Example 6.2); format: cell-based, human
Procedure: as §4

SMILES | IC50 (MCF7 cells [1]) | IC50 (A549 cells) | IC50 (HCT116^poly cells) | IC50 (MCF7 cells [2]) | IC50 (SW480 cells) | IC50 (HCT116 cells) | IC50 (MJT3 cells) | IC50 (KM cells) | IC50 (MiaPaCa3 cells) | IC50 (PANC1 cells) | IC50 (HCT116^norm cells) | cyclin B level (cyclin B; HCT116^norm cells) | cyclin B level (cyclin B; HCT116^poly cells) | BAX level (Bax; HCT116^norm cells) | BAX level (Bax; HCT116^poly cells)
Nc1ccn([C@@H]2O[C@H](CO)[C@@H](O)C2(F)F)c(=O)n1 [Gemcitabine, gemcitabine] | 1.9 ± 0.75 µM | 14 ± 1.6 µM | 15 µM |  |  |  |  |  |  |  |  |  |  |  | 
C[C@@H]1CC[C@H]2[C@@H](C)C(=O)O[C@@H]3O[C@@]4(C)CC[C@@H]1[C@]32OO4 [Artemisinin, artemisinin] |  |  |  | 44 ± 15 µM | 156 ± 38 µM | 204 ± 88 µM | > 1000 µM | 101 ± 15 µM | 31 ± 13 µM | > 1000 µM |  |  |  |  | 
C[C@H]1[C@H](OC(=O)CCC(=O)O)O[C@@H]2O[C@@]3(C)CC[C@H]4[C@H](C)CC[C@@H]1[C@@]24OO3 [Artesunate, artesunate] | 2.3 ± 0.94 µM | 9.8 ± 1.7 µM |  |  |  |  |  |  |  |  | 1.92 ± 0.35 µM | decrease | increase | no effect | decrease
